17 molecules from US20200330447A1, “CANCER TREATMENT VIA REPOSITIONED TRICYCLIC ANTI-DEPRESSANT-LIKE DRUGS AS ANTI-CANCER AGENTS AND NEW COMBINATIONS OF SUCH DRUGS” (Board of Supervisors of Louisiana State University and …, priority 2015, published 2020) can be followed below.

Where a name gives a salt, the structure may show the parent alone.

Assay type in all cases: cell-based
Assay [1] concerns DU145 prostate cancer cells. In words: High content imaging-based screen (Cellomics) for lysosome migration inhibitors. To be noted: 16 hours; for hit in screen for lysosome migration inhibitors (mean ring spot count): pH 6.4 media, 2 micrograms per ml. As to the method:
DEVELOPMENT OF A HIGH CONTENT IMAGING-BASED SCREEN: The followings process was followed to identify chemicals that were lysosome migration inhibitors. DU145 prostate cancer cells were seeded in 96 well flat bottom black walled plates at 4,500 cells per well. All compounds and controls were exposed to RPMI bicarbonate buffered media (pH 6.4). RPMI buffered media titrated at pH of 6.4-6.8 was added to column 12 after the media was removed and serves as negative control (low acidic pH so lysosomes move out). […] The 4 compound libraries chosen to screen were the NIH Clinical Collection (450 drugs), Prestwick (1200 drugs), Prestwick phytochemical and the Green Pharma collection (xx drugs). Compounds were diluted with buffered RPMI media to 2 micrograms per ml concentrations. Individual compounds to be screened were added robotically as a single compound per well through columns 2-11. Plates were incubated at 37 degrees in 5% CO2 for 16 hours then the medium was removed and the cells were fixed with 4% cold paraformaldehyde (Sigma-Aldrich) for 20 minutes at 4 degrees. Fixed cells were washed once with PBS. To stain lysosomes, cells were incubated for 1 hour with LAMP1 antibody (H4A3) diluted in BSP (containing 0.25% BSA and 0.1% saponin in PBS) at 1/200. Cells were then washed with PBS 3 times then incubated for 1 hour with Dylight Donkey anti-mouse diluted at 1/200 in BSP. To stain the nucleus, cells were then washed with PBS 3 times and incubated for 20 minutes with 1×DAPI diluted in PBS. DAPI was washed off with PBS and cells were maintained in PBS for the duration of the screening process. Plates were mounted and read in a Cellomics Arrayscan automated fluorescence imager. The Cellomics platform allows for high content throughput screening by combining fluorescence microscopy with a multi-parameter image analysis. Cells were photographed using 20× objective in 2 fluorescent channels. A total of 15 different fields in each well, and at least 300 cells were imaged per well. The biocompartmental analysis algorithm was used to identify each cell by its nucleus (channel 1 recognized by the DAPI stain) and to generate a cytoplasmic mask (ring) of 12 pixels width in which the inner ring was 6 pixels away from the nucleus. The algorithm calculates the number of lysosomes inside the ring as indicated by fluorescent LAMP-1 positive puncta in channel 2 as a mean ring spot count. Therefore, when lysosomes move away from the nucleus and disperse throughout the cytoplasm, the number of spots representing lysosomes inside the cytoplasmic ring increases (low pH conditions). By contrast, lysosomes cluster near the nucleus the numbers of spot inside the cytoplasmic ring decreases (EIPA treated).
Z′-factor is a simple statistical coefficient used to assess performance and quality of the assay in high-throughput screening. It is calculated with the formula: Z′=1-(3σct+3σcb)/|μct−μcb|, where p indicates mean, a represents standard deviation, “ct” indicates the positive control, “cb” indicates the negative control. […] If the Z′ is more than 0.5, the assay is considered to be high quality assay.
The Z′ factor of the assay was determined from the EIPA (positive control) and low pH (negative control). Experiments were run in duplicate. Only plates with positive Z′ factor was used for analysis.

The test system of assay [2] is A172 glioblastoma cells. In words: Acidic media pH induced lysosome distribution, LAMP-1 IF imaging. To be noted: EIPA, low pHe media. As to the method: A172 glioblastoma cells were treated overnight with 5 or 10 μM deptropine or pizotifen or with the deptropine or pizotifen in combination at 5 μM concentration. The next day, media was change to low pHe media containing deptropine or pizotifen and the cells were incubated for an additional 2 h. EIPA is a known inhibitor of lysosomal outward movement and represents the positive control. At the end of the incubation time, cells were fixed and stained for LAMP-1, filamentous actin and nuclei. Representative merged IF images depicting the effect of pHe 7.4, pHe 6.4, DMSO or deptropine and pizotifen on the distribution of lysosomes in A172 glioblastoma cells. On color versions of the Figure, red puncta are lysosomes, blue is nuclei and green is actin. As could be seen, lysosomes appear more peripherally distributed in A172 glioma cells than in cells treated with concentrations of 5 to 10 micromolar deptropine or pizotifen.
Cells were treated as described above with FIG. 2 but included a concentration of 0.1 micromolar and 1 micromolar deptropine and pizotifen.
Turning to FIG. 7, an additional aspect of this technology is how quickly deptropine and pizotifen act to move lysosomes towards the nucleus. […] A172 glioblastoma cells were treated with the 5 or 10 μM deptropine or pizofifen for 2 h and then with low pHe media containing the drugs for an additional 2 hours. At the end of incubation time, cells were fixed and stained for LAMP-1, filamentous actin, and nuclei. Representative merged IF images depicting the effect of DMSO, 5 and 10 μM deptropine or pizotifen upon 4 hours on the distribution of lysosomes, colored red in color images, in A172 glioblastoma cells. Also shown in color images are actin, colored green, and nuclei, colored blue.

The test system of assay [3] is Erk signaling pathway. In words: Lysosome inward movement in the presence of the MAPK inhibitor U0126, and Erk western blot. To be noted: deptropine and pizotifen 5 μM, 4 hours, A172 cells. The procedure:
Turning to FIG. 8, deptropine and pizotifen are shown to act through the Erk signaling pathway. In this experiment, A172 cells were treated with deptropine and pizotifen at 5 μM concentrations for 4 hours in the presence of the MAPK inhibitor U0126. I.F. microscopy was then performed. This helped allow the determination of the mechanism of action of deptropine and pizotifen.

With `O=C(c1ccc(OCCN2CCCCC2)cc1)c1c(-c2ccc(O)cc2)sc2cc(O)ccc12` [raloxifene], the “hit in screen for lysosome migration inhibitors (mean ring spot count)” value in assay [1] was “hits”.

In the case of `CC[C@]1(O)C[C@H]2CN(CCc3c([nH]c4ccccc34)[C@@](C(=O)OC)(c3cc4c(cc3OC)N(C=O)[C@H]3[C@@](O)(C(=O)OC)[C@H](OC(C)=O)[C@]5(CC)C=CCN6CC[C@]43[C@@H]65)C2)C1` [vincristine], in assay [1], the “hit in screen for lysosome migration inhibitors (mean ring spot count)” value is recorded as “hits”.

As to `CCN(c1nc(N)c(C(=O)NC(=N)N)nc1Cl)C(C)C` [EIPA], the “acidic media induced lysosome redistribution, positive control” value in assay [2] is “prevented lysosome redistribution and induced clustering of lysosomes around the nucleus”. Moreover, in assay [1] (EIPA 25 uM), the “lysosome position, positive control” value was “lysosomes near the nucleus”. As to `COC(=O)Nc1nc2ccc(C(=O)c3ccccc3)cc2[nH]1` [mebendazole], the “hit in screen for lysosome migration inhibitors (mean ring spot count)” value in assay [1] is “hits”.

`N#CC(=C(/N)Sc1ccccc1N)/C(C#N)=C(\N)Sc1ccccc1N` [U0126]: the “effect of U0126 on inward movement of lysosomes induced by deptropine and pizotifen” value in assay [3] is “prevents the action of deptropine and pizotifen”. Take `COc1ccc2c(c1)[nH]c1c(C)nccc12` [harmine]: the “hit in screen for lysosome migration inhibitors (mean ring spot count)” value in assay [1] was “hit”. The same measure, in the same setting: the same measure for `CCCSc1ccc2nc(NC(=O)OC)[nH]c2c1` [albendazole]: “hits”.

For the molecule dihydroergotoxine mesylate, in assay [1], the “hit in screen for lysosome migration inhibitors (mean ring spot count)” value was “hits”. Turning to `CC(=O)O[C@H]1C(=O)[C@@]2(C)[C@H]([C@H](OC(=O)c3ccccc3)[C@]3(O)C[C@H](OC(=O)[C@H](O)[C@@H](NC(=O)c4ccccc4)c4ccccc4)C(C)=C1C3(C)C)[C@]1(OC(C)=O)CO[C@@H]1C[C@@H]2O` [paclitaxel], the “hit in screen for lysosome migration inhibitors (mean ring spot count)” value in assay [1] is given as “hits”. The same measure, in the same setting: the same measure for `COc1cc2c(c(OC)c1OC)-c1ccc(OC)c(=O)cc1[C@@H](NC(C)=O)CC2` [colchicine]: “hits”. Same read-out and setting: the same measure for `OC(c1cc(C(F)(F)F)nc2c(C(F)(F)F)cccc12)C1CCCCN1` (stereo not drawn) [mefloquine, [(R*,S*)-2,8-bis(trifluoromethyl)quinolin-4-yl]-(2-piperidyl)methanol]: “hit”; for `COc1cc([C@@H]2c3cc4c(cc3[C@H](O)[C@H]3COC(=O)[C@H]23)OCO4)cc(OC)c1OC` [podophyllotoxin]: “hits”. On the same count and under the same terms, the same measure for `COC(=O)Nc1nc2ccc(Sc3ccccc3)cc2[nH]1` [fenbendazole]: “hits”; for `CCC1=C[C@@H]2CN(C1)Cc1c([nH]c3ccccc13)[C@@](C(=O)OC)(c1cc3c(cc1OC)N(C)[C@H]1[C@@](O)(C(=O)OC)[C@H](OC(C)=O)[C@]4(CC)C=CCN5CC[C@]31[C@@H]54)C2` [vinorelbine]: “hits”; for `CC(C)[C@@]1(NC(=O)[C@@H]2C[C@@H]3c4cccc5[nH]cc(c45)C[C@H]3N(C)C2)O[C@@]2(O)[C@@H]3CCCN3C(=O)[C@H](Cc3ccccc3)N2C1=O` [dihydroergocristine mesylate, (5′α,10α)-9,10-Dihydro-12′-hydroxy-2′-(1-methylethyl)-5′-(phenylmethyl)-ergotaman-3′, 6′, 18-trione mesylate]: “hits”. `O=C(Nc1ccc([N+](=O)[O-])cc1Cl)c1cc(Cl)ccc1O` [niclosamide]: the “hit in screen for lysosome migration inhibitors (mean ring spot count)” value in assay [1] was “hits”. Still for that read-out and setting: the same measure for `CC[C@]1(O)C[C@@H]2CN(CCc3c([nH]c4ccccc34)[C@@](C(=O)OC)(c3cc4c(cc3OC)N(C)[C@H]3[C@@](O)(C(N)=O)[C@H](O)[C@]5(CC)C=CCN6CC[C@]43[C@@H]65)C2)C1` [vindesine]: “hits”.
